Data on 21 molecules can be found in patent publication US20070027143A1, “Novel substituted 2,3-benzodiazepine derivatives” (priority 2003, published 2007).

Molecules are shown by their SMILES. Some results are limits rather than exact numbers.

In general, melting point refers to the temperature, or range, at which the solid turns liquid. `Cc1nnc(N2N=C(c3ccc(N)cc3)c3cc4c(cc3CC2C)OCO4)s1` (racemic) [Example 85, (±)-5-(4-Aminophenyl)-8-methyl-7-(5-methyl-1,3,4-thiadiazol-2-yl)-8,9-dihydro-7H-1,3-dioxolo-[4,5-h][2,3]benzodiazepine] came in with a melting point of 143 to 148 °C. For `Cc1cc(C2=NN(C3=NN=C(C(=O)OCc4ccccc4)[SH]3CN)[C@H](C)Cc3cc4c(cc32)OCO4)ccc1[N+](=O)[O-]` (stereo partly drawn) [Example 145, (R)-7-(5-Benzyloxycarbonyl-aminomethyl-1,3,4-thiadiazol-2-yl)-8-methyl-5-(3-methyl-4-nitrophenyl)-8,9-dihydro-7H-1,3-dioxolo[4,5-h][2,3]benzodiazepine], the melting point fell in the range of 240 to 243 °C. Then `CC1Cc2cc3c(cc2C(c2ccc(N)cc2)=NN1c1n[nH]c(=O)s1)OCO3` (racemic) [Example 101, (±)-5-(4-Aminophenyl)-8-methyl-7-(5-oxo-4,5-dihydro-1,3,4-thiadiazol-2-yl)-8,9-dihydro-7H-1,3-dioxolo-[4,5-h][2,3]benzodiazepine], with 263 to 264 °C; and `CC1Cc2cc3c(cc2C(c2ccc(N)cc2)=NN1c1nc(C(=O)O)cs1)OCO3` (racemic) [Example 106, (±)-5-(4-Aminophenyl)-7-(4-carboxy-thiazol-2-yl)-8-methyl-8,9-dihydro-7H-1,3-dioxolo-[4,5-h][2,3]benzodiazepine], with > 260 °C (dec.).

Take `CC1Cc2cc3c(cc2C(c2ccc(N)cc2)=NN1c1nnn[nH]1)OCO3` (racemic) [Example 107, (±)-5-(4-Aminophenyl)-8-methyl-7-(5-tetrazolyl)-8,9-dihydro-7H-1,3-dioxolo[4,5-h][2,3]benzodiazepine]: the melting point was over 360 °C. Then `Cc1csc(N2N=C(c3ccc(N)cc3)c3cc4c(cc3CC2C)OCO4)n1` (racemic) [Example 63, (±)-5-(4-Aminophenyl)-8-methyl-7-(4-methyl-thiazol-2-yl)-8,9-dihydro-7H-1,3-dioxolo-[4,5-h][2,3]benzodiazepine], with 190 to 191 °C; and `Cc1csc(N2N=C(c3ccc(N)cc3)c3cc(Cl)c(Cl)cc3CC2C)n1` (racemic) [Example 81, (±)-1-(4-Aminophenyl)-7,8-dichloro-3-(4-methyl-thiazol-2-yl)-4-methyl-4,5-dihydro-3H-[2,3]benzodiazepine], with 182 to 184 °C. Then `CC1Cc2ccc(Cl)cc2C(c2ccc(N)cc2)=NN1c1nccs1` (racemic) [Example 77, (±)-1-(4-Aminophenyl)-8-chloro-4-methyl-3-(2-thiazolyl)-4,5-dihydro-3H-[2,3]benzodiazepine], with 104 to 107 °C; and `CC(=O)Nc1ccc(C2=NN(c3nccs3)[C@H](C)Cc3cc4c(cc32)OCO4)cc1` [Example 123, (R)-5-(4-Acetylaminophenyl)-8-methyl-7-(2-thiazolyl)-8,9-dihydro-7H-1,3-dioxolo[4,5-h][2,3]benzodiazepine], with 126 °C; and `CC1Cc2cc3c(cc2C(c2ccc(N)cc2)=NN1c1nnc(C2CC2)s1)OCO3` (racemic) [Example 87, (±)-5-(4-Aminophenyl)-7-(5-cyclopropyl-1,3,4-thiadiazol-2-yl)-8-methyl-8,9-dihydro-7H-1,3-dioxolo[4,5-h][2,3]benzodiazepine], with 145 to 148 °C. As for `CC1Cc2cc3c(cc2C(c2ccc(N)cc2)=NN1c1nccs1)OCO3` (racemic) [Example 60, (±)-5-(4-Aminophenyl)-8-methyl-7-(2-thiazolyl)-8,9-dihydro-7H-1,3-dioxolo[4,5-h][2,3]benzodiazepine], the melting point was in the range of 187 to 190 °C.

With `CC(=O)Nc1ccc(C2=NN(c3ncc(C)s3)C(C)Cc3cc4c(cc32)OCO4)cc1` (racemic) [Example 120, (±)-5-(4-Acetylaminophenyl)-8-methyl-7-(5-methyl-thiazol-2-yl)-8,9-dihydro-7H-1,3-dioxolo-[4,5-h][2,3]benzodiazepine], the melting point lay in the range of 176 to 179 °C. The same measure for `CC1Cc2cc3c(cc2C(c2ccc(N)cc2)=NN1C1=NNC(=O)CS1)OCO3` (racemic) [Example 100, (±)-5-(4-Aminophenyl)-7-(5,6-dihydro-5-oxo-4H-1,3,4-thiadiazin-2-yl)-8-methyl-8,9-dihydro-7H-1,3-dioxolo[4,5-h][2,3]benzodiazepine]: 172 to 176 °C.

`Cc1nc(N2N=C(c3ccc(N)cc3)c3cc4c(cc3CC2C)OCO4)n(C)n1` (racemic) [Example 117, (±)-5-(4-Aminophenyl)-8-methyl-7-(2,5-dimethyl-2H-1,2,4-triazol-3-yl)-8,9-dihydro-7H-1,3-dioxolo-[4,5-h][2,3]benzodiazepine] registered a melting point of 185 to 187 °C. The same measure for `CC1Cc2cc3c(cc2C(c2ccc(N)cc2)=NN1c1nc(=O)n(C)s1)OCO3` (racemic) [Example 103, (±)-5-(4-Aminophenyl)-8-methyl-7-(2-methyl-3-oxo-2,3-dihydro-1,2,4-thiadiazol-5-yl)-8,9-dihydro-7H-1,3-dioxolo[4,5-h][2,3]benzodiazepine]: 213 °C; for `CC1=NC(N2N=C(c3ccc(N)cc3)c3cc4c(cc3CC2C)OCO4)NN1` (racemic) [Example 114, (±)-5-(4-Aminophenyl)-8-methyl-7-(5-methyl-1H(2H)-1,2,4-triazol-3-yl)-8,9-dihydro-7H-1,3-dioxolo-[4,5-h][2,3]benzodiazepine]: 166 to 169 °C; for `Cc1nnc(N2N=C(c3cccc(N)c3)c3cc4c(cc3CC2C)OCO4)s1` (racemic) [Example 97, (±)-5-(3-Aminophenyl)-8-methyl-7-(5-methyl-1,3,4-thiadiazol-2-yl)-8,9-dihydro-7H-1,3-dioxolo-[4,5-h][2,3]benzodiazepine]: 197 to 198 °C. Then `Cc1cc(C2=NN(c3nccs3)[C@H](C)Cc3cc4c(cc32)OCO4)cc(C)c1N` [Example 189, (R)-5-(4-Amino-3,5-dimethylphenyl)-8-methyl-7-(thiazol-2-yl)-8,9-dihydro-7H-1,3-dioxolo-[4,5-h][2,3]benzodiazepine], with 202 to 203 °C; and `CC(=O)Nc1ccc(C2=NN(c3nccs3)[C@@H](C)Cc3cc4c(cc32)OCO4)cc1` [Example 124, (S)-5-(4-Acetylaminophenyl)-8-methyl-7-(2-thiazolyl)-8,9-dihydro-7H-1,3-dioxolo-[4,5-h][2,3]benzodiazepine], with 124 to 128 °C; and `CCCCCCc1nnc(N2N=C(c3ccc(N)c(C)c3)c3cc4c(cc3C[C@H]2C)OCO4)s1` [Example 178, (R)-5-(4-Amino-3-methylphenyl)-7-(5-hexyl-1,3,4-thiadiazol-2-yl)-8-methyl-8,9-dihydro-7H-1,3-dioxolo[4,5-h][2,3]benzodiazepine], with 180 to 181 °C. In turn, `CC1=Cc2cc3c(cc2C(c2ccc(C)c(N)c2)=NN1c1nnc(C)s1)OCO3` [Example 96, (±)-5-(3-Amino-4-methylphenyl)-8-methyl-7-(5-methyl-1,3,4-thiadiazol-2-yl)-7H-1,3-dioxolo-[4,5-h][2,3]benzodiazepine] showed a melting point of 125 °C.
